From ChEMBL document CHEMBL6083231, “AANAT kinetics of CoASH-targeted electrophiles of tryptamine and related analogs” (Bioorg Med Chem Lett, 2024)

How the values were obtained:
[1] = target: T1, Serotonin N-acetyltransferase (Homo sapiens, UniProt Q16613); assay: Inhibition of AANAT (unknown origin)
[2] = target: T1, Serotonin N-acetyltransferase; assay: Inhibition of human AANAT

T1 sequence (Q16613 whole entry): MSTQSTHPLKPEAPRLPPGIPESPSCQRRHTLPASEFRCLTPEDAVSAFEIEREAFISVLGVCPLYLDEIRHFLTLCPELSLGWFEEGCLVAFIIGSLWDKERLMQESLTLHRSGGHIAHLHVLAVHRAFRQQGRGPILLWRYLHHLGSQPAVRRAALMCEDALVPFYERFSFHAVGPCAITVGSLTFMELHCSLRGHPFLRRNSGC

IC50 [1] [µM] | IC50 [2] [µM] | Structure (SMILES)
0.5 | – | O=C(CBr)NCCc1c[nH]c2ccccc12
5.2 | – | O=C(CCl)NCCc1c[nH]c2ccccc12
– | 25 | C=CC(=O)NCCc1csc2ccc(OC)cc12
